# In US7579344B2, “Pyrimidine derivatives possessing cell-cycle inhibitors activity” (Astrazeneca AB, priority 2003, dated 2009):
# Target: T1, CDK2/Cyclin E (Homo sapiens, UniProt P24941)
# T1 construct: The open reading frames of CDK2 and Cyclin E were isolated; made in house; host or cells: Sf21 (Spodoptera frugiperda) insect cells, baculovirus co-infection; the GST-Rb substrate was made in E. coli BL21 (DE3) pLysS
# Assay: in vitro kinase Scintillation Proximity Assay, incorporation of [γ-33-P]-ATP into GST-Rb
# Format: biochemical
# Settings: GST-Rb substrate, 0.2 μM ATP, 60 minutes at room temperature
# Description: The compounds were tested in an in vitro kinase assay in 96 well format using Scintillation Proximity Assay (SPA - obtained from Amersham) for measuring incorporation of [γ-33-P]-Adenosine Triphosphate into a test substrate (GST-Retinoblastoma protein; GST-Rb). In each well was placed the compound to be tested (diluted in DMSO and water to correct concentrations) and in control wells either roscovitine as an inhibitor control or DMSO as a positive control.
# Approximately 0.2 μl of CDK2/Cyclin E partially-purified enzyme (amount dependent on enzyme activity) diluted in 25 μl incubation buffer was added to each well then 20 μl of GST-Rb/ATP/ATP33 mixture (containing 0.5 μg GST-Rb and 0.2 μM ATP and 0.14 μCi [γ-33-P]-Adenosine Triphosphate in incubation buffer), and the resulting mixture shaken gently, then incubated at room temperature for 60 minutes.
# To each well was then added 150 μL stop solution containing (0.8 mg/well of Protein A-PVT SPA bead (Amersham)), 20 pM/well of Anti-Glutathione Transferase, Rabbit IgG (obtained from Molecular Probes), 61 mM EDTA and 50 mM HEPES pH 7.5 containing 0.05% sodium azide.
# The plates were sealed with Topseal-S plate sealers, left for two hours then spun at 2500 rpm, 1124 xg., for 5 minutes. The plates were read on a Topcount for 30 seconds per well.
# The incubation buffer used to dilute the enzyme and substrate mixes contained 50 mM HEPES pH7.5, 10 mM MnCl2, 1 mM DTT, 100 μM Sodium vanadate, 100 μM NaF, 10 mM Sodium Glycerophosphate, BSA (1 mg/ml final).
# In this assay only part of the retinoblastoma protein (Science 1987 Mar. 13;235(4794):1394-1399; Lee W. H., Bookstein R., Hong F., Young L. J., Shew J. Y., Lee E. Y.) was used, fused to a GST tag. […]
# The open reading frames of CDK2 and Cyclin E were isolated by reverse transcriptase-PCR using HeLa cell and activated T cell mRNA as a template and cloned into the insect expression vector pVL1393 (obtained from Invitrogen 1995 catalogue number: V1392-20). […]
row,IC50 [nM],SMILES
1,21,"c1ccc(Nc2nccc(-c3cnc4n3CCCC4)n2)cc1 [Example 2, 2-anilino-4-(5,6,7,8-tetrahydroimidazo[1,2-a]pyridin-3-yl)pyrimidine]"
2,42,"c1ccc(Nc2nccc(-c3cnc4n3CCOC4)n2)cc1 [Example 5, 2-Anilino-4-(5,6-dihydro-8H-imidazo[2,1-c][1,4]oxazin-3-yl)pyrimidine]"
3,13,COCCNS(=O)(=O)c1ccc(Nc2nccc(-c3cnc4n3CCOC4)n2)cc1 [Example 9]
